Source: US7273886B2 (Genentech, Inc., priority 2003, dated 2007)
Values after ≈ are worked out from the molar mass of the structure shown. One block for each compound: values may come before it.

What was measured:
Solubility in water = type: physicochemical; details: aqueous buffer, thermodynamic from solid, amorphous solid
APC [1] = target: APC (Homo sapiens, UniProt P04070); experiment: APC inhibition (Ki); type: biochemical; details: APC
APC [2] = experiment: APC inhibition (Ki); type: biochemical; details: APC relative to TFVIIa
Trypsin = Trypsin inhibition (Ki); type: biochemical
TFVIIa = target: T1, TFVIIa (Homo sapiens, UniProt P08709); experiment: Tissue Factor/Factor VIIa antagonist assay (Ki); type: biochemical
T1 construct: recombinant human factor VIIa; NB #25942–16
T1 sequence (P08709 61-212 limits assumed): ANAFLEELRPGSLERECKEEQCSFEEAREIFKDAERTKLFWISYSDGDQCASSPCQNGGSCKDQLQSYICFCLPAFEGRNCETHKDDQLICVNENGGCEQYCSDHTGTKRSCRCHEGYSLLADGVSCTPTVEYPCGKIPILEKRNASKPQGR
T1 sequence (P08709 213-466 limits assumed): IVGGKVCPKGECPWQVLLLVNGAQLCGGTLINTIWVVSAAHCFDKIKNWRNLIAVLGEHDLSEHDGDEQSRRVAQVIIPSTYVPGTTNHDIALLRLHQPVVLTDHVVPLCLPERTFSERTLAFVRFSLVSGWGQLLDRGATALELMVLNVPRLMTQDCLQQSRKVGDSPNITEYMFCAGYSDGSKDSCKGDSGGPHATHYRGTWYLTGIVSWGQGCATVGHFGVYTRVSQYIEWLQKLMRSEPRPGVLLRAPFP
T1 sequence (P13726 33-251 partner limits assumed): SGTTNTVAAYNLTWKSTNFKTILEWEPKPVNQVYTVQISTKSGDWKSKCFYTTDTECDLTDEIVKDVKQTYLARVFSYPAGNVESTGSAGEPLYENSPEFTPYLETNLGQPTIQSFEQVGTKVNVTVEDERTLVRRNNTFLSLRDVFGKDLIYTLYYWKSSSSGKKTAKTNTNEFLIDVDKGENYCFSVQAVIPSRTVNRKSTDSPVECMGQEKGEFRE
Experimental: Tissue Factor/Factor VIIa Antagonist Assay
This procedure can be used to determine the constant of inhibition (Ki) for a sample compound of the invention.
• Assay Buffer: 100 mM Hepes pH 7.8, 140 mM NaCl, 0.1% PEG-8000, 0.02% Tween-80, 5 mM CaCl2 Coagulation • Factor: recombinant human factor VIIa (NB #25942–16) • Cofactor: soluble Tissue Factor (1-219) • Substrate: Chromozym-tPA (Boehringer Mannheim, Cat. #1093 037) Reconstitute at 20 mM in H2O. Dilute to 4 mM in assay buffer with CaCl2 prior to use. • Samples: Dilute samples to 3% DMSO in assay buffer (lacking CaCl2). Procedure: • 1. Prepare a solution of 2 μg/mL (90 nM) tissue factor and 1.5 μg/mL (30 nM) factor VIIa in assay buffer with CaCl2. • 2. Incubate for 15 minutes at room temperature. • 3. Add 50 μL sample to each well. • 4. Add 50 μL tissue factor/factor VIIa solution to each well. • 5. Incubate for 15 minutes at room temperature with gentle agitation. • 6. Add 50 μL substrate to each well. • 7. Agitate plate for 20–25 sec. • 8. Monitor absorbance at 405 nm every 10 sec for a total of 5 minutes at room temperature. • 9. Calculate Vmax over 10 points.

Urokinase = Urokinase (Homo sapiens, UniProt P00749); experiment: Urokinase inhibition (Ki); type: biochemical
XIIA = target: T2, XIIA (Homo sapiens, UniProt P00748); experiment: XIIA inhibition (Ki); type: biochemical
T2 sequence (P00748 373-615 limits assumed): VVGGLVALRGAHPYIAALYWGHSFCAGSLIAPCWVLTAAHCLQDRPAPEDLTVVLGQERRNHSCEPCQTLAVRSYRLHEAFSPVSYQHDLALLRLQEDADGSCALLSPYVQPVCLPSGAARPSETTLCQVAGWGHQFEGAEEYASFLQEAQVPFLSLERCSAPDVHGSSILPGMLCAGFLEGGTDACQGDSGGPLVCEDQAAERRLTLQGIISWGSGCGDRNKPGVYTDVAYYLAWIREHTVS

Thrombin = target: T3, Thrombin (Homo sapiens, UniProt P00734); experiment: Thrombin assay (Ki); type: biochemical
T3 construct: rapidly converts prothrombin to thrombin; purchased Hematologic Technologies
Experimental: (§1) Factor Xa, Thrombin, and Plasma Kallikrein Assays
(§2) These procedures can be used to determine the constant of inhibition (Ki) for a sample compound of the invention.
(§3) • Assay Buffer: 100 mM Hepes pH 7.8, 140 mM NaCl, 0.1% PEG-8000, 0.02% Tween-80 • Coagulation human Factor Xa, Thrombin, or Plasma Kallikrein (Hematologic Technologies) • Factor: Dilute to 0.45 μg/mL (9.8 nM) in assay buffer. • Substrate: S-2222, S2366 or S2302—(See below—Chromogenix Inc,) Reconstitute at 5 mM in H2O. Dilute to 1.5 mM in assay buffer prior to use. • Samples: Dilute samples to 3% DMSO in assay buffer. Procedure: • 1. Add 50 μL sample to each well. • 2. Add 50 μL appropriately diluted coagulation factor to each well. • 3. Incubate for 5 minutes at room temperature with gentle agitation. • 4. Add 50 μL appropriately diluted substrate to each well. • 5. Agitate plate for 20–25 sec. • 6. Monitor absorbance at 405 nm every 10 sec for a total of 5 minutes at room temperature. • 7. Calculate Vmax over 10 points. Assay—Enzyme, Substrate and Final Concentrations

Chymotrypsin = Chymotrypsin inhibition (Ki); type: biochemical
HGFA = target: T4, HGFA (Homo sapiens, UniProt Q04756); experiment: HGFA inhibition (Ki); type: biochemical
T4 sequence (Q04756 373-655): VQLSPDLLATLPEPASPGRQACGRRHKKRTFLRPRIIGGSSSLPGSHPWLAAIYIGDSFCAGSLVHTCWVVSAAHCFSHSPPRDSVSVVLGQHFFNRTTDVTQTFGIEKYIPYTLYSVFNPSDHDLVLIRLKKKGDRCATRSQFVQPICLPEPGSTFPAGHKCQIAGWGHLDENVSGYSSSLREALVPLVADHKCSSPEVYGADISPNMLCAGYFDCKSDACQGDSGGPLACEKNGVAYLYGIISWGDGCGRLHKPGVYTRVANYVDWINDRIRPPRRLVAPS

Plasmin = Plasmin (Homo sapiens, UniProt P00747); experiment: Plasmin inhibition (Ki); type: biochemical
Chain of Plasmin (P00747 581-810 limits assumed, species assumed): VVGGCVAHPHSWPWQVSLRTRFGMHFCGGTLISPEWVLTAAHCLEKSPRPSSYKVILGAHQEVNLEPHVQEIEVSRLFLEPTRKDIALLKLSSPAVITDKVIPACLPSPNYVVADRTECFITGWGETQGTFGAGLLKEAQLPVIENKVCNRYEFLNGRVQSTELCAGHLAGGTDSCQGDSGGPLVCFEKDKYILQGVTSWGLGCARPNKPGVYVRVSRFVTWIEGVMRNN
Chain of Plasmin (P00747 97-580 limits assumed, species assumed): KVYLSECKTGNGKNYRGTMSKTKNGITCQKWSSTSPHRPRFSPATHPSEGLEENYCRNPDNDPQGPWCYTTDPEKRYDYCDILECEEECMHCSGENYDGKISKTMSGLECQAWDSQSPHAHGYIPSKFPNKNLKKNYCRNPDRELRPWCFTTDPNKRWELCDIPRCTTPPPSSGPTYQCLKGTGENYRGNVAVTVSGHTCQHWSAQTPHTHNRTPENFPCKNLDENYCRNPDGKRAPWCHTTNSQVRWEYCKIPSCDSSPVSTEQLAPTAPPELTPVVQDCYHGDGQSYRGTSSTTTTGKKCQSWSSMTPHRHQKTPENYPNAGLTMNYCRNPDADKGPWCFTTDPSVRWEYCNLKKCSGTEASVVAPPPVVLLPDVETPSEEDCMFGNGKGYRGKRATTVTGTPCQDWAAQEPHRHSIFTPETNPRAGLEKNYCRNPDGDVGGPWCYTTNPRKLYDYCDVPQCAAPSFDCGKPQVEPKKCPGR

Acetylcholinesterase = Acetylcholinesterase (Homo sapiens, UniProt P22303); experiment: Acetylcholinesterase inhibition (Ki); type: biochemical
Chain of Acetylcholinesterase (P22303 32-614, species assumed): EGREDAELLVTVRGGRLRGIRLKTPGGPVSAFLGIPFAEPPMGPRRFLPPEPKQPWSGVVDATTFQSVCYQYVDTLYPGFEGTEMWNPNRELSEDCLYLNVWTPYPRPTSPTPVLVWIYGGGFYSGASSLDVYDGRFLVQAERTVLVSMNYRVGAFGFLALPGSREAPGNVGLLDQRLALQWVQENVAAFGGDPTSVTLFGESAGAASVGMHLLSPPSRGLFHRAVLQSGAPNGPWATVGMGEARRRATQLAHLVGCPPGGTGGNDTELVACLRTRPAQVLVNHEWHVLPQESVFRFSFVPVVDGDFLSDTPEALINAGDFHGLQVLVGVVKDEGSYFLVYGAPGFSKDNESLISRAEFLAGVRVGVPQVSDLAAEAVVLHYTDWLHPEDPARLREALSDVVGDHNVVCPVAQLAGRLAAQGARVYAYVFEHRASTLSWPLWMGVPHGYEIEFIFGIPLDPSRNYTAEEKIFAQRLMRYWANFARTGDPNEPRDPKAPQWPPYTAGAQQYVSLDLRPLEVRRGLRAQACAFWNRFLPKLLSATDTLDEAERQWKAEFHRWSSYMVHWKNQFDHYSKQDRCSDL

Plasma Kallikrein = target: T5, Plasma Kallikrein (Homo sapiens, UniProt P03952); experiment: Plasma Kallikrein assay (Ki); type: biochemical
T5 construct: human Factor Xa, Thrombin, or Plasma Kallikrein (Hematologic Technologies); purchased Hematologic Technologies
T5 sequence (P03952 20-390 limits assumed): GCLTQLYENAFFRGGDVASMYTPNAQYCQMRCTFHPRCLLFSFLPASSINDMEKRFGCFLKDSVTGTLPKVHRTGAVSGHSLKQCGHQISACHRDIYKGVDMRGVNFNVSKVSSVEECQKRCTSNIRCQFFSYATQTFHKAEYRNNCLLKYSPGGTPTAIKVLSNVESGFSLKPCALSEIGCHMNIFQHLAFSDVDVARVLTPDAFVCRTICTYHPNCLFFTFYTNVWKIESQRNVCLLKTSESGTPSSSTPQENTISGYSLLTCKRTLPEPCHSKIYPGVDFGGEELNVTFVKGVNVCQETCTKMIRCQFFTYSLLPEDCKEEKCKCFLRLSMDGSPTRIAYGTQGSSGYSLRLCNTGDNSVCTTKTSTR
T5 sequence (P03952 391-638 limits assumed): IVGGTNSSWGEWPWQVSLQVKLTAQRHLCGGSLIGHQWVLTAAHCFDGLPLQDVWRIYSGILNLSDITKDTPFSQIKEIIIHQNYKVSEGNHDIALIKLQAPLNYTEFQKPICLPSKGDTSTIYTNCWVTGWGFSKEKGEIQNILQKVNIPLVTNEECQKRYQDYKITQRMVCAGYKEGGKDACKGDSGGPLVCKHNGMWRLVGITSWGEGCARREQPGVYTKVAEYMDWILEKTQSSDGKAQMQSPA
Experimental: as §1, §2, §3

XIA [3] = experiment: XIA inhibition (Ki); type: biochemical; details: XIA relative to TFVIIa
XIA [4] = target: XIA (Homo sapiens, UniProt P03951); experiment: XIA inhibition (Ki); type: biochemical; details: XIA
Chain of XIA (Homo sapiens, UniProt P03951) (P03951 388-625 limits assumed): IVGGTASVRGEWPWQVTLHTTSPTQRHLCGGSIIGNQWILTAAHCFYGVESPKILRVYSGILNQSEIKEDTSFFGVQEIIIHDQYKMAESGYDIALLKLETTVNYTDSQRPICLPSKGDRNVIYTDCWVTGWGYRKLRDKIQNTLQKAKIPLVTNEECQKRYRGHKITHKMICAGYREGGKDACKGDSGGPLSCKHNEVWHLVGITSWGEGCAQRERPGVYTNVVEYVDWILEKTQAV

Complement CS1 = target: T6, Complement CS1 (Homo sapiens, UniProt P09871); experiment: Complement CS1 inhibition (Ki); type: biochemical
T6 sequence (P09871 16-688): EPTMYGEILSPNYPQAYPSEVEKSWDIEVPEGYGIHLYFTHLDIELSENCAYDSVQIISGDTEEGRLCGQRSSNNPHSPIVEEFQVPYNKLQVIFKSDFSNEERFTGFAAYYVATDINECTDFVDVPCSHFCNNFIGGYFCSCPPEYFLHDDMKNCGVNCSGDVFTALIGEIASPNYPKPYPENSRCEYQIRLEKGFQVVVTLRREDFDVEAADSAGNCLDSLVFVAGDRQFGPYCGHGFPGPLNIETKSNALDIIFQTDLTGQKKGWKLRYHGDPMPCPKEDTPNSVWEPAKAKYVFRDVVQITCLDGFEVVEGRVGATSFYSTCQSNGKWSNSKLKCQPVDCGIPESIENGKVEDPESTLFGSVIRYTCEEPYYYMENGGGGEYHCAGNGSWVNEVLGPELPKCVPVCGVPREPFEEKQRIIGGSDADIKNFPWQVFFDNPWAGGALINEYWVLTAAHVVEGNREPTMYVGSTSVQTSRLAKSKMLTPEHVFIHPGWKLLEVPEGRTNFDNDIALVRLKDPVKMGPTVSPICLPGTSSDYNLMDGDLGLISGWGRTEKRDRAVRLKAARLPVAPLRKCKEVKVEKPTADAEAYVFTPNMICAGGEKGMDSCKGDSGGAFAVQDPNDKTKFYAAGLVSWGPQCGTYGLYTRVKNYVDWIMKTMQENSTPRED

tPA = tPA (Homo sapiens, UniProt P00750); experiment: tPA inhibition (Ki); type: biochemical
Chain of tPA (P00750 36-562, species assumed): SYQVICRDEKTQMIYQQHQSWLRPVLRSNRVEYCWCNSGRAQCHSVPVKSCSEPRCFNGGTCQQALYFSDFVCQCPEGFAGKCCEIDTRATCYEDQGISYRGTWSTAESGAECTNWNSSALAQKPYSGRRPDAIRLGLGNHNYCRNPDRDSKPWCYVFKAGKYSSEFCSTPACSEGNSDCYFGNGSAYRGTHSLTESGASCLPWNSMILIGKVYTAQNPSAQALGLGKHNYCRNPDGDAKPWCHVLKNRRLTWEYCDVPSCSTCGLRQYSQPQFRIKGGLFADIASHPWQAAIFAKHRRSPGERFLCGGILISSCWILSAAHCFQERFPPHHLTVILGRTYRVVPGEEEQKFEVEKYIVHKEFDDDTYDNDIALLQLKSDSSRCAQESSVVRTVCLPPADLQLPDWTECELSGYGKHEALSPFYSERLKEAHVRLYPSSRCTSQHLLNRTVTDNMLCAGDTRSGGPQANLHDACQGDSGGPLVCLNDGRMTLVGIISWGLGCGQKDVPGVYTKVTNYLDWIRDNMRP

F. Xa = target: T7, F. Xa (Homo sapiens, UniProt P00742); experiment: Factor Xa assay (Ki); type: biochemical
T7 construct: This complex converts factor X to Xa; purchased Hematologic Technologies
T7 sequence (P00742 41-179 limits assumed): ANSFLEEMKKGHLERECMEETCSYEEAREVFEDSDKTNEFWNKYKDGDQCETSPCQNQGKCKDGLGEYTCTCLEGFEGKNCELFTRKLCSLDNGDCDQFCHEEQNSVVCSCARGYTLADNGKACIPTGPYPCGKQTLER
T7 sequence (P00742 235-488 limits assumed): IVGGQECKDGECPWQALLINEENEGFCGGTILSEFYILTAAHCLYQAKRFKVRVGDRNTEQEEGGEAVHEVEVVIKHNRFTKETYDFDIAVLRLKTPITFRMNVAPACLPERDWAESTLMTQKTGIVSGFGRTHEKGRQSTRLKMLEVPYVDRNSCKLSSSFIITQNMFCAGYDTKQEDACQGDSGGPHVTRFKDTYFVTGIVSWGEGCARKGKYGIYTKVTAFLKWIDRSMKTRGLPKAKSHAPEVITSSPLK
Experimental: as §1, §2, §3

[5] = Plasma concentrations following IV bolus administration in rhesus monkey; type: in vivo; details: IV bolus 1 mg/kg
Experimental: Dosing of Benzofuran Compounds in Rhesus Monkeys
IV Bolus: Inhibitors were formulated in a 1 mg/ml solution of 20–30% PEG 400/sterile water. The drug was administered as an IV bolus over 1 minute at 1 mg/kg. 1.0 ml blood samples were collected at each time point on 20 μl 8.5% K2EDTA. Blood samples for the IV dosed animals were be collected from a short, large bore catheter (needle <25G) placed in the saphenous or cephalic vein for all time points up to 3 hours after dosing. The catheters were then removed, the animals returned to their cages and latter samples collected by venipuncture. Venipuncture samples can be obtained from any superficial vein that can easily be compressed (e.g. cephalic, or saphenous but not from the femoral plexus). Sample time points were taken generally at the following times: pre-dose, 2, 5, 10, 20, 30, 40, 60, 90, 120, 150, 180 minutes and at 4, 6, 12, 24, and 48 hours.

Chain of APC (Homo sapiens, UniProt P04070) (P04070 212-461 limits assumed): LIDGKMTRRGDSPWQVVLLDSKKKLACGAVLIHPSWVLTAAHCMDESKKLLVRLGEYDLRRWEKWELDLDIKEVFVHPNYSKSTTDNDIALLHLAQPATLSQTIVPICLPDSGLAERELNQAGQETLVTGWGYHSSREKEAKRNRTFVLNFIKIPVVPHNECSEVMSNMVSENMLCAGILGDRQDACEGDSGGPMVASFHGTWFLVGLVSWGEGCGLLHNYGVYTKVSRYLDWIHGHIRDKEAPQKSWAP

- solubility (Solubility in water; pH 2): 115 µM (≈ 65 µg/mL)
- solubility (Solubility in water; pH 6.5): 98 µM (≈ 55.4 µg/mL)
Structure (SMILES): CCc1cc(C(Nc2ccc(/C(N)=N\OCc3ccc(OC)cc3)cc2)C(=O)NS(N)(=O)=O)cc2c(C)coc12 (stereo not shown) [Compound 26]

Structure (SMILES): CCc1cc(C(Nc2ccc(C(=N)N)cc2)C(=O)NS(N)(=O)=O)cc2c(C)coc12 (stereo not shown) [Compound 8]
- Ki (APC [1]): 1440 nM
- Selectivity (APC [2]): 360 X
- Ki (Trypsin; Trypsin): 2100 nM
- Selectivity (Trypsin; Trypsin relative to TFVIIa): 525 X
- Ki (TFVIIa; TFVIIa): 4 nM
- Selectivity (TFVIIa; TFVIIa (reference)): 1 X
- Ki (Urokinase; Urokinase): > 6800 nM
- Selectivity (Urokinase; Urokinase relative to TFVIIa): >1700 X
- Ki (XIIA; XIIA): > 8700 nM
- Selectivity (XIIA; XIIA relative to TFVIIa): >2175 X
- Ki (Thrombin; Thrombin): 830 nM
- Selectivity (Thrombin; Thrombin relative to TFVIIa): 207 X
- Ki (Chymotrypsin; Chymotrypsin): > 6900 nM
- Selectivity (Chymotrypsin; Chymotrypsin relative to TFVIIa): >1725 X
- Ki (HGFA; HGFA): 6400 nM
- Selectivity (HGFA; HGFA relative to TFVIIa): 1600 X
- Ki (Plasmin; Plasmin): 880 nM
- Selectivity (Plasmin; Plasmin relative to TFVIIa): 220 X
- Ki (Acetylcholinesterase): > 6800 nM
- Selectivity (Acetylcholinesterase; Acetylcholinesterase relative to TFVIIa): 1700 X
- Ki (Plasma Kallikrein; Plasma Kallikrein): 82 nM
- Selectivity (Plasma Kallikrein; Plasma Kallikrein relative to TFVIIa): 20 X
- Selectivity (XIA [3]): >2000 X
- Ki (XIA [4]): > 8000 nM
- Ki (Complement CS1; Complement CS1): > 6500 nM
- Selectivity (Complement CS1; Complement CS1 relative to TFVIIa): >1625 X
- Ki (tPA; tPA): > 7800 nM
- Selectivity (tPA; tPA relative to TFVIIa): >1950 X
- Ki (F. Xa; F. Xa): > 7000 nM
- Selectivity (F. Xa; F. Xa relative to TFVIIa): >1750 X

Structure (SMILES): CCOc1cc(OCC)cc(C(Nc2ccc(C(=N)N)cc2)C(=O)NS(=O)(=O)CC)c1 (stereo not shown)
- clearance [5]: 8.6 mL/min/kg body weight
- half-life ([5]; plasma): 1.25 h
